In US10294202B2, “Pyrrolidinones as herbicides” (FMC Corporation, priority 2013, dated 2019):

Tests used:
ducksalad = experiment: Test B flooded paddy test; type: in vivo, Heteranthera limosa; settings: Flood, scale of 0 to 100 where 0 is no effect and 100 is complete control
Procedure, shortened: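 Visual ratings from 0, meaning no effect, up to 100, meaning complete control, were made by comparison with untreated controls 13 to 15 days after treatment. Test compounds went straight into floodwater standing 3 cm over the soil of pots holding 2-leaf seedlings.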

blackgrass = experiment: Test C pre-/postemergence herbicide test; type: in vivo, Alopecurus myosuroides; settings: for Blackgrass plant response rating: scale 0 to 100, 0 is no effect and 100 is complete control
Procedure, shortened: (§1)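 Herbicidal effect was judged by eye 13 to 15 days after treatment in the greenhouse, using a 0–100 scale against controls. Chemicals in a non-phytotoxic solvent with surfactant were sprayed onto planted loam/sand soil or onto plants 2 to 18 cm tall in a peat-based growing medium.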

barnyardgrass = experiment: Test A pre-/postemergence herbicide test; type: in vivo, Echinochloa crus-galli
Procedure, shortened: (§2)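 Both application timings used compounds in a non-phytotoxic solvent plus surfactant. Pre-emergence: soil sprayed directly after seeding into loam/sand. Post-emergence: foliage of 2–10 cm seedlings (1–2 leaves) sprayed. Injury rated ~10 days later, 0–100.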

nutsedge, yellow = experiment: Test C pre-/postemergence herbicide test; type: in vivo, Cyperus esculentus; settings: for Nutsedge, Yellow plant response rating: scale 0 to 100, 0 is no effect and 100 is complete control
Procedure, shortened: as §1

wheat (winter wheat) = experiment: Test C pre-/postemergence herbicide test; type: in vivo, Triticum aestivum; settings: for Wheat plant response rating: scale 0 to 100, 0 is no effect and 100 is complete control
Procedure, shortened: as §1

wheat = experiment: Test A pre-/postemergence herbicide test; type: in vivo, Triticum aestivum
Procedure, shortened: as §2

ryegrass, Italian = experiment: Test C pre-/postemergence herbicide test; type: in vivo, Lolium multiflorum; settings: for Ryegrass, Italian plant response rating: scale 0 to 100, 0 is no effect and 100 is complete control
Procedure, shortened: as §1

pigweed = experiment: Test A pre-/postemergence herbicide test; type: in vivo, Amaranthus retroflexus
Procedure, shortened: as §2

galium = experiment: Test C pre-/postemergence herbicide test; type: in vivo, Galium aparine; settings: for Galium plant response rating: scale 0 to 100, 0 is no effect and 100 is complete control
Procedure, shortened: as §1

oilseed rape = experiment: Test C pre-/postemergence herbicide test; type: in vivo, Brassica napus; settings: for Oilseed Rape plant response rating: scale 0 to 100, 0 is no effect and 100 is complete control
Procedure, shortened: as §1

[1] = Postemergence, 31 g ai/ha, scale 0 (no effect) to 100 (complete control)
[2] = Postemergence, 62 g ai/ha, scale 0 to 100 (0 no effect, 100 complete control)
[3] = Postemergence, 125 g ai/ha, scale 0 to 100 (0 no effect, 100 complete control)
[4] = Postemergence, 250 g ai/ha, scale 0 to 100 (0 no effect, 100 complete control)
[5] = Postemergence, 1000 g ai/ha, 0 to 100 scale (0 no effect, 100 complete control)
[6] = preemergence, 1000 g ai/ha, 0 to 100 scale
[7] = Preemergence, 62 g ai/ha, scale 0 to 100
[8] = Preemergence, 125 g ai/ha, scale 0 to 100 (0 no effect, 100 complete control)
[9] = Postemergence, 125 g ai/ha, 0 to 100 scale, 0 no effect, 100 complete control
[10] = Postemergence, 500 g ai/ha, 0 to 100 scale (0 no effect, 100 complete control)
[11] = Preemergence, 125 g ai/ha, visual rating on 0 to 100 scale (0 no effect, 100 complete control)
[12] = preemergence, 500 g ai/ha, 0 to 100 scale (0 no effect, 100 complete control)
[13] = preemergence, 500 g ai/ha, 0 to 100 scale
[14] = Postemergence, 31 g ai/ha, scale 0 to 100 (0 no effect, 100 complete control)
[15] = Postemergence, 62 g ai/ha, scale 0 (no effect) to 100 (complete control)
[16] = 125 g ai/ha, visual rating, 0 to 100 scale, 0 no effect, 100 complete control, approximately 10 days, preemergence

Cc1c(F)cccc1NC(=O)C1C(=O)NCC1c1ccc(F)c(F)c1 (racemic) [Compound 106]
5: Plant response rating, Ryegrass, Italian (ryegrass, Italian; [4])
35: Plant response rating, Galium (galium; [4])
0: Plant response rating, Blackgrass (blackgrass; [1]) | Plant response rating, Blackgrass (blackgrass; [2]) | Plant response rating, Blackgrass (blackgrass; [3]) | Plant response rating, Blackgrass (blackgrass; [4]) | Plant response rating, Nutsedge, Yellow (nutsedge, yellow; [1]) | Plant response rating, Nutsedge, Yellow (nutsedge, yellow; [2]) | Plant response rating, Nutsedge, Yellow (nutsedge, yellow; [3]) | Plant response rating, Nutsedge, Yellow (nutsedge, yellow; [4]) | Plant response rating, Wheat (wheat (winter wheat); [1]) | Plant response rating, Wheat (wheat (winter wheat); [2]) | Plant response rating, Wheat (wheat (winter wheat); [3]) | Plant response rating, Wheat (wheat (winter wheat); [4]) | Plant response rating, Ryegrass, Italian (ryegrass, Italian; [1]) | Plant response rating, Ryegrass, Italian (ryegrass, Italian; [2]) | Plant response rating, Ryegrass, Italian (ryegrass, Italian; [3]) | Plant response rating, Pigweed (pigweed; [5]) | Plant response rating, Pigweed (pigweed; [6]) | Plant response rating, Galium (galium; [1]) | Plant response rating, Galium (galium; [2]) | Plant response rating, Oilseed Rape (oilseed rape; [1]) | Plant response rating, Oilseed Rape (oilseed rape; [2]) | Plant response rating, Oilseed Rape (oilseed rape; [3]) | Plant response rating, Oilseed Rape (oilseed rape; [4])
30: Plant response rating, Wheat (wheat; [5])
90: Plant response rating, Ducksalad (ducksalad; 1000 g ai/ha) | Plant response rating, Barnyardgrass (barnyardgrass; [5]) | Plant response rating, Barnyardgrass (barnyardgrass; preemergence, 1000 g ai/ha, 0 to 100 scale (0 no effect, 100 complete control))
50: Plant response rating, Wheat (wheat; [6]) | Plant response rating, Galium (galium; [3])

Cc1ccccc1NC(=O)C1C(=O)NCC1c1cccc(C(F)(F)F)c1 (racemic) [Compound 109]
50: Plant response rating, Wheat (wheat (winter wheat); [8]) | Plant response rating, Galium (galium; [8])
85: Plant response rating (scale of 0 to 100), Wheat (wheat (winter wheat); Preemergence, 250 g ai/ha)
40: Plant response rating, Ryegrass, Italian (ryegrass, Italian; [7]) | Plant response rating (scale of 0 to 100), Oilseed Rape (oilseed rape; Preemergence, 250 g ai/ha)
70: Plant response rating (scale of 0 to 100), Ryegrass, Italian (ryegrass, Italian; Preemergence, 250 g ai/ha)
30: Plant response rating, Galium (galium; [3]) | Plant response rating, Galium (galium; [4])
95: Plant response rating, Ducksalad (ducksalad; 1000 g ai/ha) | Plant response rating (scale of 0 to 100), Blackgrass (blackgrass; Preemergence, 250 g ai/ha)
60: Plant response rating, Blackgrass (blackgrass; [7]) | Plant response rating, Wheat (wheat; [10]) | Galium plant response rating (galium; Preemergence, 31 g ai/ha)
10: Plant response rating, Wheat (wheat (winter wheat); [7])
0: Plant response rating, Blackgrass (blackgrass; [1]) | Plant response rating, Blackgrass (blackgrass; [2]) | Plant response rating, Blackgrass (blackgrass; [3]) | Plant response rating, Blackgrass (blackgrass; [4]) | Blackgrass plant response rating (blackgrass; Preemergence, 31 g ai/ha) | Plant response rating, Nutsedge, Yellow (nutsedge, yellow; [1]) | Plant response rating, Nutsedge, Yellow (nutsedge, yellow; [2]) | Plant response rating, Nutsedge, Yellow (nutsedge, yellow; [3]) | Plant response rating, Nutsedge, Yellow (nutsedge, yellow; [4]) | Nutsedge, Yellow plant response rating (nutsedge, yellow; Preemergence, 31 g ai/ha) | Plant response rating, Nutsedge, Yellow (nutsedge, yellow; [8]) | Plant response rating, Wheat (wheat (winter wheat); [1]) | Plant response rating, Wheat (wheat (winter wheat); [2]) | Plant response rating, Wheat (wheat (winter wheat); [3]) | Plant response rating, Wheat (wheat (winter wheat); [4]) | Wheat plant response rating (wheat (winter wheat); Preemergence, 31 g ai/ha) | Plant response rating, Ryegrass, Italian (ryegrass, Italian; [1]) | Plant response rating, Ryegrass, Italian (ryegrass, Italian; [2]) | Plant response rating, Ryegrass, Italian (ryegrass, Italian; [3]) | Plant response rating, Ryegrass, Italian (ryegrass, Italian; [4]) | Ryegrass, Italian plant response rating (ryegrass, Italian; Preemergence, 31 g ai/ha) | Plant response rating, Pigweed (pigweed; [9]) | Plant response rating, Pigweed (pigweed; [10]) | Pigweed plant response rating (pigweed; [11]) | Plant response rating, Pigweed (pigweed; [13]) | Plant response rating, Galium (galium; [1]) | Plant response rating, Galium (galium; [2]) | Plant response rating, Oilseed Rape (oilseed rape; [1]) | Plant response rating, Oilseed Rape (oilseed rape; [2]) | Oilseed Rape plant response rating (oilseed rape; Preemergence, 31 g ai/ha) | Plant response rating, Oilseed Rape (oilseed rape; [7])
20: Plant response rating, Wheat (wheat; [9]) | Plant response rating, Ryegrass, Italian (ryegrass, Italian; [8])
5: Plant response rating, Nutsedge, Yellow (nutsedge, yellow; [7]) | Plant response rating (scale of 0 to 100), Nutsedge, Yellow (nutsedge, yellow; Preemergence, 250 g ai/ha) | Plant response rating, Oilseed Rape (oilseed rape; [3]) | Plant response rating, Oilseed Rape (oilseed rape; [4]) | Plant response rating, Oilseed Rape (oilseed rape; [8])
100: Plant response rating, Galium (galium; [7]) | Plant response rating (scale of 0 to 100), Galium (galium; Preemergence, 250 g ai/ha)
80: Barnyardgrass plant response rating (barnyardgrass; [11])
90: Plant response rating, Blackgrass (blackgrass; [8]) | Plant response rating, Barnyardgrass (barnyardgrass; [9]) | Plant response rating, Barnyardgrass (barnyardgrass; [10]) | Plant response rating, Barnyardgrass (barnyardgrass; [12])

O=C1NCC(c2ccc(F)cc2)C1C(=O)Nc1ccc(F)c(F)c1F (racemic) [Compound 120]
10: Wheat plant response rating (wheat (winter wheat); Preemergence, 31 g ai/ha) | Plant response rating, Ryegrass, Italian (ryegrass, Italian; [4]) | Ryegrass, Italian plant response rating (ryegrass, Italian; Preemergence, 31 g ai/ha) | Plant response rating, Ryegrass, Italian (ryegrass, Italian; [8])
5: Plant response rating, Ryegrass, Italian (ryegrass, Italian; [7]) | Galium plant response rating (galium; Preemergence, 31 g ai/ha)
95: Plant response rating, Galium (galium; [7])
30: Plant response rating, Wheat (wheat (winter wheat); [8]) | Plant response rating (scale of 0 to 100), Ryegrass, Italian (ryegrass, Italian; Preemergence, 250 g ai/ha) | Plant response rating, Pigweed (pigweed; [16])
20: Plant response rating, Wheat (wheat; [9]) | Plant response rating, Pigweed (pigweed; [9])
80: Plant response rating, Barnyardgrass (barnyardgrass; [9])
0: Plant response rating, Blackgrass (blackgrass; [14]) | Plant response rating, Blackgrass (blackgrass; [15]) | Plant response rating, Blackgrass (blackgrass; [3]) | Plant response rating, Blackgrass (blackgrass; [4]) | Plant response rating, Nutsedge, Yellow (nutsedge, yellow; [14]) | Plant response rating, Nutsedge, Yellow (nutsedge, yellow; [15]) | Plant response rating, Nutsedge, Yellow (nutsedge, yellow; [3]) | Plant response rating, Nutsedge, Yellow (nutsedge, yellow; [4]) | Nutsedge, Yellow plant response rating (nutsedge, yellow; Preemergence, 31 g ai/ha) | Plant response rating, Nutsedge, Yellow (nutsedge, yellow; [7]) | Plant response rating, Nutsedge, Yellow (nutsedge, yellow; [8]) | Plant response rating (scale of 0 to 100), Nutsedge, Yellow (nutsedge, yellow; Preemergence, 250 g ai/ha) | Plant response rating, Wheat (wheat (winter wheat); [14]) | Plant response rating, Wheat (wheat (winter wheat); [15]) | Plant response rating, Wheat (wheat (winter wheat); [3]) | Plant response rating, Wheat (wheat (winter wheat); [4]) | Plant response rating, Ryegrass, Italian (ryegrass, Italian; [14]) | Plant response rating, Ryegrass, Italian (ryegrass, Italian; [15]) | Plant response rating, Ryegrass, Italian (ryegrass, Italian; [3]) | Plant response rating, Oilseed Rape (oilseed rape; [14]) | Plant response rating, Oilseed Rape (oilseed rape; [15]) | Plant response rating, Oilseed Rape (oilseed rape; [3]) | Plant response rating, Oilseed Rape (oilseed rape; [4]) | Oilseed Rape plant response rating (oilseed rape; Preemergence, 31 g ai/ha) | Plant response rating, Oilseed Rape (oilseed rape; [7])
70: Plant response rating (scale of 0 to 100), Blackgrass (blackgrass; Preemergence, 250 g ai/ha) | Plant response rating, Oilseed Rape (oilseed rape; [8])
100: Plant response rating, Ducksalad (ducksalad; 500 g ai/ha)
90: Plant response rating, Barnyardgrass (barnyardgrass; [16]) | Plant response rating, Barnyardgrass (barnyardgrass; [10]) | Plant response rating, Barnyardgrass (barnyardgrass; [12]) | Plant response rating (scale of 0 to 100), Galium (galium; Preemergence, 250 g ai/ha) | Plant response rating (scale of 0 to 100), Oilseed Rape (oilseed rape; Preemergence, 250 g ai/ha)
50: Plant response rating, Blackgrass (blackgrass; [7]) | Plant response rating, Blackgrass (blackgrass; [8]) | Pigweed plant response rating (0 to 100 scale, 0 is no effect, 100 is complete control) (pigweed; Postemergence, 500 g ai/ha) | Plant response rating, Galium (galium; [8])
35: Blackgrass plant response rating (blackgrass; Preemergence, 31 g ai/ha) | Plant response rating, Wheat (wheat (winter wheat); [7])
60: Wheat plant response rating (0 to 100 scale, 0 is no effect, 100 is complete control) (wheat; Postemergence, 500 g ai/ha)
40: Plant response rating, Pigweed (pigweed; [13])
85: Plant response rating (scale of 0 to 100), Wheat (wheat (winter wheat); Preemergence, 250 g ai/ha)
